SMILES strings stand for the structures.

The target in this test is T1, HASPIN (Homo sapiens, UniProt Q8TF76).
T1 sequence (Q8TF76 1-798): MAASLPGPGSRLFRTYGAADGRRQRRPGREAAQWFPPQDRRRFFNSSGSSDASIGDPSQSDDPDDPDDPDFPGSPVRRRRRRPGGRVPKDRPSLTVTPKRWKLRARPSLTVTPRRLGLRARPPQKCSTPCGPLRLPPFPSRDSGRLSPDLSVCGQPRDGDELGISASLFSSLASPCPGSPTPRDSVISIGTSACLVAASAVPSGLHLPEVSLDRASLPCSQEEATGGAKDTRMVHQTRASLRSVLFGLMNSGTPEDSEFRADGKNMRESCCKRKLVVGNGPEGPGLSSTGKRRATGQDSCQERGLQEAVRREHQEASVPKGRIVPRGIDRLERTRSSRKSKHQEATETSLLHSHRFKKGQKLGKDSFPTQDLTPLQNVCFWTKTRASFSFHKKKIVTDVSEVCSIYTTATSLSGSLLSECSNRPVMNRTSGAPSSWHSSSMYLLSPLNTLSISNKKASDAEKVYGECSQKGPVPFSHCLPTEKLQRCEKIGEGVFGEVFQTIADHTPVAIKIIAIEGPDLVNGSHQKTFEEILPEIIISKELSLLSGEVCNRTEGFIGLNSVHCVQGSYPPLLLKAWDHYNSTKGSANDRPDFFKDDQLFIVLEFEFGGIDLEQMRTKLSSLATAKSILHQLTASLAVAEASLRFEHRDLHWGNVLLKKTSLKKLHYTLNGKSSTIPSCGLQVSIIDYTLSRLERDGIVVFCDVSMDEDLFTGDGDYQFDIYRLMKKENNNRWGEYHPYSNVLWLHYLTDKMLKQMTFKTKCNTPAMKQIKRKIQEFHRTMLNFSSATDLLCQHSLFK
The test can be described thus: HASPIN biochemical assay (ADP-Glo, HASPIN autophosphorylation). The conditions noted are these: ATP 150 µM, 60 min at 30 °C. The protocol:
HASPIN biochemical Assay: The biochemical assay to measure HASPIN activity relies on the ADP-Glo™ assay kit (Promega) that determines the amount of ADP as direct product of the kinase enzyme activity. Assay conditions were as indicated by the kit manufacturers with the following adaptations for the kinase activity step: Kinase assay buffer and assay volume (15 mM HEPES pH 7.5, 20 mM NaCl, 1 mM EGTA, 0.02% TWEEN 20, 10 mM MgCl2, 0.1 mg/mL BGG)/25 µL assay volume). Incubation time and temperature: 60 min at 30 °C. HASPIN final concentration: 0.9 µg/mL. ATP final concentration: 150 µM. HASPIN autophosphorylation was measured. Assays were performed in 384-well plates. The final outcome of the coupled reactions provided by the kit is the release of […] and has been measured with a multilabel HTS counter Victor V / Envision. Values were normalized against the control activity included (100% HASPIN activity, without compound). Values were plotted against the inhibitor concentration and fit to a sigmoid dose-response curve using Activity base by IDBS software.
(In ADP-Glo the light output rises with the ADP produced.)
With `NC(=O)c1cn2cc(-c3ccncc3)nc(NCC3CCNCC3)c2n1` [Compound 2, 8-[(Piperidin-4-ylmethyl)-amino]-6-pyridin-4-yl-imidazo[1,2-a]pyrazine-2-carboxylic acid amide], the half-inhibitory concentration (IC50) amounted to 30 nM.
On to `COCCNC(=O)c1cn2cc(-c3ccncc3)nc(NCC3CCNCC3)c2n1` [Compound 5, 8-[(Piperidin-4-ylmethyl)-amino]-6-pyridin-4-yl-imidazo[1,2-a]pyrazine-2-carboxylic acid (2-methoxy-ethyl)-amide], for which the concentration for half-maximal inhibition (IC50) was found to be 229 nM.
Compound `N#CC1(CNc2nc(-c3ccnc(Cl)c3)cn3cc(C(N)=O)nc23)CCNCC1` [Compound 6, 6-(2-Chloro-pyridin-4-yl)-8-[(4-cyano-piperidin-4-ylmethyl)-amino]-imidazo[1,2-a]pyrazine-2-carboxylic acid amide] had a half-inhibitory concentration (IC50) of 59.6 nM.
`CNC(=O)c1nc2c(NCC3CCNCC3)nc(-c3ccncc3)cn2c1C` [Compound 7, 3-Methyl-8-[(piperidin-4-ylmethyl)-amino]-6-pyridin-4-yl-imidazo[1,2-a]pyrazine-2-carboxylic acid methylamide] showed a 50% inhibitory concentration (IC50) of 60 nM.
The same measure for `Cc1c(C(N)=O)nc2c(NCC3CCNCC3)nc(-c3ccncc3)cn12` [Compound 9, 3-Methyl-8-[(piperidin-4-ylmethyl)-amino]-6-pyridin-4-yl-imidazo[1,2-a]pyrazine-2-carboxylic acid amide]: 180 nM; for `CNC(=O)c1nc2c(NCC3CCNCC3)nc(-c3ccnc(Cl)c3)cn2c1C` [Compound 11, 6-(2-Chloro-pyridin-4-yl)-3-methyl-8-[(piperidin-4-ylmethyl)-amino]-imidazo[1,2-a]pyrazine-2-carboxylic acid methylamide]: 65 nM.
Compound `Cc1c(C(N)=O)nc2c(NCC3CCNCC3)nc(-c3ccnc(Cl)c3)cn12` [Compound 12, 6-(2-Chloro-pyridin-4-yl)-3-methyl-8-[(piperidin-4-ylmethyl)-amino]-imidazo[1,2-a]pyrazine-2-carboxylic acid amide] returned an IC50 of 253 nM.
The same measure for `CNC(=O)c1nc2c(NCC3(F)CCNCC3)nc(-c3ccncc3)cn2c1C` [Compound 14, 8-[(4-Fluoro-piperidin-4-ylmethyl)-amino]-3-methyl-6-pyridin-4-yl-imidazo[1,2-a]pyrazine-2-carboxylic acid methylamide]: 78 nM; for `NC(=O)c1cn2cc(-c3ccncc3)nc(NCC3(F)CCNCC3)c2n1` [Compound 15, 8-[(4-Fluoro-piperidin-4-ylmethyl)-amino]-6-pyridin-4-yl-imidazo[1,2-a]pyrazine-2-carboxylic acid amide]: 25.9 nM; for `Cc1c(C(N)=O)nc2c(NCC3(F)CCNCC3)nc(-c3ccncc3)cn12` [Compound 16, 8-[(4-Fluoro-piperidin-4-ylmethyl)-amino]-3-methyl-6-pyridin-4-yl-imidazo[1,2-a]pyrazine-2-carboxylic acid amide]: 96 nM.
The same measure for `CNC(=O)c1nc2c(NCC3(C#N)CCNCC3)nc(-c3ccncc3)cn2c1C` [Compound 17, 8-[(4-Cyano-piperidin-4-ylmethyl)-amino]-3-methyl-6-pyridin-4-yl-imidazo[1,2-a]pyrazine-2-carboxylic acid methylamide]: 18.2 nM; for `COCCNC(=O)c1nc2c(NCC3(C#N)CCNCC3)nc(-c3ccncc3)cn2c1C` [Compound 18, 8-[(4-Cyano-piperidin-4-ylmethyl)-amino]-3-methyl-6-pyridin-4-yl-imidazo[1,2-a]pyrazine-2-carboxylic acid (2-methoxy-ethyl)-amide]: 138 nM.
The same measure for `Cc1c(C(N)=O)nc2c(NCC3(C#N)CCNCC3)nc(-c3ccncc3)cn12` [Compound 19, 8-[(4-Cyano-piperidin-4-ylmethyl)-amino]-3-methyl-6-pyridin-4-yl-imidazo[1,2-a]pyrazine-2-carboxylic acid amide]: 45.7 nM.
For the compound `CNC(=O)c1nc2c(NCC3(F)CCNCC3)nc(-c3ccnc(Cl)c3)cn2c1C` [Compound 20, 6-(2-Chloro-pyridin-4-yl)-8-[(4-fluoro-piperidin-4-ylmethyl)-amino]-3-methyl-imidazo[1,2-a]pyrazine-2-carboxylic acid methylamide], the half-maximal inhibitory concentration (IC50) was 78.8 nM.
The figure for `CNC(=O)c1nc2c(NCC3(C#N)CCNCC3)nc(-c3ccnc(Cl)c3)cn2c1C` [Compound 21, 6-(2-Chloro-pyridin-4-yl)-8-[(4-cyano-piperidin-4-ylmethyl)-amino]-3-methyl-imidazo[1,2-a]pyrazine-2-carboxylic acid methylamide] is 151 nM; for `Cc1c(C(N)=O)nc2c(NCC3(C#N)CCNCC3)nc(-c3ccnc(Cl)c3)cn12` [Compound 24, 6-(2-Chloro-pyridin-4-yl)-8-[(4-cyano-piperidin-4-ylmethyl)-amino]-3-methyl-imidazo[1,2-a]pyrazine-2-carboxylic acid amide] it is 111 nM.
The figure for `Cc1c(C(N)=O)nc2c(NCC3(F)CCNCC3)nc(-c3ccnc(Cl)c3)cn12` [Compound 25, 6-(2-Chloro-pyridin-4-yl)-8-[(4-fluoro-piperidin-4-ylmethyl)-amino]-3-methyl-imidazo[1,2-a]pyrazine-2-carboxylic acid amide] is 157 nM; for `CNC(=O)c1cn2cc(-c3ccncc3F)nc(NCC3CCNCC3)c2n1` [Compound 28, 6-(3-Fluoro-pyridin-4-yl)-8-[(piperidin-4-ylmethyl)-amino]-imidazo[1,2-a]pyrazine-2-carboxylic acid methylamide] it is 19.5 nM; for `N#CC1(CNc2nc(-c3ccncc3F)cn3cc(C(N)=O)nc23)CCNCC1` [Compound 29, 8-[(4-Cyano-piperidin-4-ylmethyl)-amino]-6-(3-fluoro-pyridin-4-yl)-imidazo[1,2-a]pyrazine-2-carboxylic acid amide] it is 6.59 nM.
The figure for `NC(=O)c1cn2cc(-c3ccncc3Cl)nc(NCC3CCNCC3)c2n1` [Compound 30, 6-(3-Chloro-pyridin-4-yl)-8-[(piperidin-4-ylmethyl)-amino]-imidazo[1,2-a]pyrazine-2-carboxylic acid amide] is 187 nM.
For the compound `CNC(=O)c1cn2cc(-c3ccncc3Cl)nc(NCC3CCNCC3)c2n1` [Compound 31, 6-(3-Chloro-pyridin-4-yl)-8-[(piperidin-4-ylmethyl)-amino]-imidazo[1,2-a]pyrazine-2-carboxylic acid methylamide], the IC50 is 189 nM.
As to `CNC(=O)c1nc2c(NCC3CCNCC3)nc(-c3ccncc3F)cn2c1C` [Compound 35, 6-(3-Fluoro-pyridin-4-yl)-3-methyl-8-[(piperidin-4-ylmethyl)-amino]-imidazo[1,2-a]pyrazine-2-carboxylic acid methylamide], half-maximal inhibition (IC50) was put at 94.8 nM.
The same measure for `NC(=O)c1cn2cc(-c3ccncc3)nc(N[C@H]3CC[C@@H](N)CC3)c2n1` [Compound 39, 8-(cis-4-Amino-cyclohexylamino)-6-pyridin-4-yl-imidazo[1,2-a]pyrazine-2-carboxylic acid amide]: 140 nM; for `NC(=O)c1cn2cc(-c3ccnc(N)c3)nc(NCC3(F)CCNCC3)c2n1` [Compound 41, 6-(2-Amino-pyridin-4-yl)-8-[(4-fluoro-piperidin-4-ylmethyl)-amino]-imidazo[1,2-a]pyrazine-2-carboxylic acid amide]: 34.5 nM; for `NC(=O)c1cn2cc(-c3ccncc3)nc(NCC3(O)CCNCC3)c2n1` [Compound 44, 8-[(4-Hydroxy-piperidin-4-ylmethyl)-amino]-6-pyridin-4-yl-imidazo[1,2-a]pyrazine-2-carboxylic acid amide]: 46.8 nM.
`NC(=O)c1cn2cc(-c3ccns3)nc(NCC3(F)CCNCC3)c2n1` [Compound 46, 8-[(4-Fluoro-piperidin-4-ylmethyl)-amino]-6-isothiazol-5-yl-imidazo[1,2-a]pyrazine-2-carboxylic acid amide] displayed a half-inhibitory concentration (IC50) of 85.6 nM.

One may read the IC50 as the concentration that inhibits the measured activity by half. A low value points to greater potency in that assay.

Values taken from EP4049726A1, “IMIDAZO[1,2-A]PYRAZINES AS INHIBITORS OF HASPIN AND THERAPEUTIC USES THEREOF” (Fundación del Sector Público Estatal Centro Nacional de …, priority 2021, dated 2022).
